Holding throughout (format): cell-based
The subject of experiment [1] is Staphylococcus aureus ATCC29213. Kind of experiment: MIC, microbroth dilution (NCCLS).
Experiment [2] deals with Staphylococcus aureus ATCC29213 rpoB^H418Y. Briefly: microbe, parasite or virus in culture.
Experiment [3] has as its system Staphylococcus aureus MT1222 gyrA^A116E grlB^S80F. Briefly: microbe, parasite or virus in culture.
Experiment [4] deals with Staphylococcus epidermidis ATCC12228. Briefly: MIC, microbroth dilution (NCCLS).
Experiment [5] relates to Streptococcus pneumoniae ATCC6303. Kind of experiment: MIC, microbroth dilution (NCCLS).
For experiment [6], the system named is Streptococcus pyogenes ATCC19615. Briefly: MIC, microbroth dilution (NCCLS).
Experiment [7] deals with Haemophilus influenzae ATCC10211. Kind of experiment: MIC, microbroth dilution (NCCLS).
Experiment [8] concerns Staphylococcus aureus ATCC29213 rpoB^D417Y. Kind of experiment: microbe, parasite or virus in culture.
The subject of experiment [9] is Enterococcus faecalis ATCC29212. Kind of experiment: MIC, microbroth dilution (NCCLS).
For experiment [10], the system named is Escherichia coli ATCC25922. Briefly: MIC, microbroth dilution (NCCLS).
Experiment [11] relates to Mycobacterium smegmatis ATCC700084. Kind of experiment: MIC, microbroth dilution (NCCLS).
Experiment [12] in a line: MIC, panel of rifampin-susceptible Gram-positive strains. The settings on record: text summary over five rifampin-susceptible Gram-positive strains.
The test system of experiment [13] is H. influenzae ATCC 10211 and E. coli ATCC 25922. Kind of experiment: MIC, Gram-negative bacteria. The following applies: text summary over two Gram-negative strains.
[14] abbreviates: rifS strain, Cation-Adjusted Mueller-Hinton Broth, 37° C., read-out: MIC.
Setting [15] is: Staphylococcus aureus, ATCC29213, rifR strain, Cation-Adjusted Mueller-Hinton Broth, 37° C., read-out: MIC.
Setting [16] is: cipR strain, Cation-Adjusted Mueller-Hinton Broth, 37° C., read-out: MIC.
[17] abbreviates: rifS strain, THY Broth with 1 mg/mL catalase, 5% CO2, 37° C., read-out: MIC.
Setting [18] is: rifS strain, THY Broth, 37° C., read-out: MIC.
Setting [19] is: rifS strain, BHI Broth with NAD and hematin, 37° C., read-out: MIC.
Setting [20] is: Staphylococcus aureus, ATCC29213.
Where [21] appears, read: rifR strain, Cation-Adjusted Mueller-Hinton Broth, 37° C.

Converted amounts (≈) assume the structure as drawn. Like-named read-outs stand apart in the source and are kept apart here.

With `CO[C@H]1/C=C/O[C@@]2(C)Oc3c(C)c(O)c4c(O)c(c(/C=N/N5CCN(c6c(F)cc7c(=O)c(C(=O)O)cn(C8CC8)c7c6Cl)CC5)c(O)c4c3C2=O)NC(=O)/C(C)=C\C=C\[C@H](C)[C@H](O)[C@@H](C)[C@@H](O)[C@@H](C)[C@H](OC(C)=O)[C@@H]1C` [Example 40, 3-[4-(3-Carboxy-8-chloro-1-cyclopropyl-6-fluoro-4-oxo-1,4-dihydroquinolin-7-yl)-piperazin-1-yl-aminomethylenyl]-rifamycin SV], the MIC in experiment [1] (setting [14]) is 0.008 to 1 µg/mL (≈ 0.00735 to 0.919 µM); in experiment [2] (setting [15]), 0.06 to 16 µg/mL (≈ 0.0551 to 14.7 µM); in experiment [3] (setting [16]) it was 0.008 to 0.125 µg/mL (≈ 0.00735 to 0.115 µM); in [4] (setting [14]), 0.008 to 0.1 µg/mL (≈ 0.00735 to 0.0919 µM); in [5] (setting [17]), 0.008 to 0.06 µg/mL (≈ 0.00735 to 0.0551 µM); in [6] (setting [18]), 0.008 to 0.03 µg/mL (≈ 0.00735 to 0.0276 µM). Besides, the MIC in experiment [7] (setting [19]) fell in the range of 0.125 to 4 µg/mL (≈ 0.115 to 3.67 µM).

With `COc1c(N2CCC(C(C)N/N=C/c3c4c(O)c5c(O)c(C)c6c(c5c3O)C(=O)[C@@](C)(O/C=C/[C@H](OC)[C@@H](C)[C@@H](OC(C)=O)[C@H](C)[C@H](O)[C@H](C)[C@@H](O)[C@@H](C)/C=C/C=C(/C)C(=O)N4)O6)C2)c(F)cc2c(=O)c(C(=O)O)cn(C3CC3)c12` (stereo partly drawn) [Example 42, 3-({1-[1-(3-Carboxy-1-cyclopropyl-6-fluoro-8-methoxy-4-oxo-1,4-dihydro-quinolin-7-yl)-pyrrolidin-3-yl]-ethyl}-hydrazinomethylenyl)-rifamycin SV], the MIC is 0.008 to 1 µg/mL (≈ 0.00719 to 0.899 µM) in experiment [1] (setting [14]); 0.06 to 16 µg/mL (≈ 0.0539 to 14.4 µM) in [2] (setting [15]); 0.008 to 0.125 µg/mL (≈ 0.00719 to 0.112 µM) in experiment [3] (setting [16]); 0.008 to 0.1 µg/mL (≈ 0.00719 to 0.0899 µM) in experiment [4] (setting [14]); 0.008 to 0.06 µg/mL (≈ 0.00719 to 0.0539 µM) in [5] (setting [17]); 0.008 to 0.03 µg/mL (≈ 0.00719 to 0.027 µM) in experiment [6] (setting [18]). The MIC in experiment [7] (setting [19]) lay within 0.125 to 4 µg/mL (≈ 0.112 to 3.6 µM).

`CO[C@H]1/C=C/O[C@@]2(C)Oc3c(C)c(O)c4c(O)c(c(/C=N/N5CCN(C)CC5)c(O)c4c3C2=O)NC(=O)/C(C)=C\C=C\[C@H](C)[C@H](O)[C@@H](C)[C@@H](O)[C@@H](C)[C@H](OC(C)=O)[C@@H]1C` [rifampin, reference compound]: the MIC is 0.008 µg/mL (≈ 0.00972 µM) in experiment [1]; 7.8 µg/mL (≈ 9.48 µM) in [2] (setting [20]); 7.8 µg/mL (≈ 9.48 µM) in [2] (setting [21]); > 64 µg/mL in [8] (setting [20]); >64 µg/mL in experiment [8] (setting [21]); 0.004 µg/mL (≈ 0.00486 µM) in experiment [3]. Besides, the MIC in experiment [4] was determined as 0.03 µg/mL (≈ 0.0365 µM); in [5] it was 0.061 µg/mL (≈ 0.0741 µM); in experiment [6] it was 0.013 µg/mL (≈ 0.0158 µM); in experiment [9] it was 0.98 µg/mL (≈ 1.19 µM); in [7], 0.24 µg/mL (≈ 0.292 µM); in experiment [10], 16 µg/mL (≈ 19.4 µM). Further, the MIC was 64 µg/mL (≈ 77.8 µM) in [11] (Mycolicibacterium smegmatis, ATCC700084); 64 µg/mL in experiment [11] (rifS strain, Middlebrook Broth plus ADC Enrichment, 37° C.); 0.008 to 1 µg/mL (≈ 0.00972 to 1.22 µM) in experiment [12]; 0.24 to 16 µg/mL (≈ 0.292 to 19.4 µM) in [13].

Source of the values: patent publication US7238694B2, “Rifamycin imino derivatives effective against drug-resistant microbes” (Cumbre Pharmaceuticals, Inc., priority 2004, dated 2007).
